# Data from patent publication US20130096099A1, “METHOD OF TREATING BRAIN CANCER” (NIIKI PHARMA INC., priority 2010, published 2013).
# Entries after “also recorded” stand apart in the source; their conditions may differ.
# Experiments:
# U87 cell line = settings: Bowles et al., J. Neurosurg., 73:248-253 (1990); cited from earlier work
# glioma cell line U87 [1] = assay: MTT assay in 3-dimentional tumor model (HuBiogel) derived from glioma cell line U87; type: cell-based
# Experimental: (§1) The compound sodium trans-[tetrachlorobis(1H-indazole)ruthenate(III)] was tested in a 3-dimentional tumor model derived from glioma cell line U87. Specifically, cells were trypsinized, washed, counted by trypan blue exclusion. Tumor beads were then prepared by mixing 20,000 cells/10 μl of HuBiogel (4 mg/mL) (See U.S. patent application Ser. No. 10/546,506, which is incorporated herein by reference). The 3-D tumor beads were cultivated for 72 hours in multi-well plates with complete media (10% FBS) in a 37° C. incubator +5% CO2. Mini-tumors were treated with various concentrations of the test compound sodium trans-[tetrachlorobis(1H-indazole)ruthenate(III)] in media (final 0.2-0.3% DMSO) or control (DMSO). Repeated drug treatment was done by removing the culture media and replacing with fresh media with drug compound or DMSO. On Day 3, MTT assay and live-cell staining with Calcein AM were performed (5 beads/assay set).
# (§2) Statistical analysis of data sets (Average, T-test, GI-50) was performed using MS-Excel program. […] See e.g., Bowles et al., J. Neurosurg., 73:248-253 (1990).
# glioma cell line U87 [2] = assay: Live-cell staining with Calcein AM / image analysis in 3-D HuBiogel tumor beads; type: cell-based; settings: 3-D HuBiogel tumor beads from U87, Calcein AM, Day 3
# Experimental: as §1, §2
structure (smiles),measurement,setting,value
"O=NN(CCCl)C(=O)NCCCl [BCNU, bis-chloronitrosourea]",resistance of U87 cell line to drug,U87 cell line,relatively resistant
[Cl][Ru-]([Cl])([Cl])[Cl].[Na+].c1ccc2[nH]ncc2c1.c1ccc2[nH]ncc2c1 [sodium trans-[tetrachlorobis(1H-indazole)ruthenate(III)]],tumor proliferation activity / growth inhibition (MTT assay),"glioma cell line U87 [1]; 3-D HuBiogel tumor beads from U87, Day 3, FIG. 1",dose-dependent growth inhibition; also recorded: significantly inhibited tumor proliferation activity
same,GI50,"glioma cell line U87 [1]; 3-D HuBiogel tumor beads from U87, MTT assay on Day 3, read-out: average GI-50 (the drug concentration required for growth inhibition at 50%)",95 µM
same,tumor killing in live-cell staining/image analysis,glioma cell line U87 [2],dose-dependent tumor killing effective
